How the values were obtained:
[1] = biological target: T1, Plasmodium falciparum 1-deoxy-D-xylulose 5-phosphate reductoisomerase (PfDxr) (Plasmodium falciparum, UniProt Q8IKG4); test: inhibition of purified recombinant PfDxr, NADPH consumption assay; format: biochemical
T1 sequence (Q8IKG4 73-488): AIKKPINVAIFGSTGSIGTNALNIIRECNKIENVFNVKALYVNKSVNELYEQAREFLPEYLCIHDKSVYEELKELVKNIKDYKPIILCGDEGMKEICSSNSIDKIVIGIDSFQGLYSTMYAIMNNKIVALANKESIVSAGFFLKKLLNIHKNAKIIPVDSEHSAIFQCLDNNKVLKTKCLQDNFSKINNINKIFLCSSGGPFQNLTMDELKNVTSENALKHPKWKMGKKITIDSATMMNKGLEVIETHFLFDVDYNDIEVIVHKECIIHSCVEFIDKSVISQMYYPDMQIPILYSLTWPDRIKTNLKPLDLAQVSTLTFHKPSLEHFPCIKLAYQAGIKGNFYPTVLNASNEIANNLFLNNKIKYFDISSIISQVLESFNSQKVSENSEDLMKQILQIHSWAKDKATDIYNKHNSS

[2] = biological target: T1, Plasmodium falciparum 1-deoxy-D-xylulose 5-phosphate reductoisomerase (PfDxr); test: co-crystal structure; format: biochemical

Compound | Ki [1] [nM] | Ki [2] [nM]
CCC(=O)N(O)CCCP(=O)(O)O [FR-900098P] | 0.92 ± 0.19 | –
CC(=O)N(O)CCCP(=O)(O)O [FR-900098] | – | 3.7 ± 0.9
